Assay results published in US12358863B2, “Nitrogen-containing derivative of substituted phenol hydroxy acid ester, and preparation and use thereof” (priority 2019, dated 2025).
Read-outs that look alike come from different tables or passages of the source.

Key:
[1] = system: Kunming mice; type: in vivo, mouse
Protocol: For each drug, 10 male Kunming mice weighing 20-35 g were included, and the dose of each drug was 2×ED50 in mice. After the compound of the present invention and fospropofol were respectively dissolved in saline, the resultant solutions were injected via the mouse tail vein. For propofol, a glucose dilution (5 mg/mL) of a commercially available emulsion of diprivan was selected and injected via the mouse tail vein; while, for another substituted phenol molecule (CAS:1637741-58-2), its 30% fat emulsion was prepared as a medicated emulsion. The concentration of the injectable solution of the compound according to the present invention was 10-15 mg/mL, and the concentration of the injectable solution of fospropofol was 55 mg/mL, while the concentration of the injectable solution of another substituted phenol molecule (CAS:1637741-58-2) was 1 mg/mL. After injection of tested drug, the occurrence time T1 of righting reflex after its disappearance, the duration T2 for the disappearance of righting reflex (i.e. anesthesia time) and the time T3 required for the animal to recover completely after waking up were recorded. Complete recovery refers to the recovery of autonomous activities of animals to the level before administration. In the experiment, animals were not given respiratory support such as oxygen inhalation or intubation.

[2] = Decomposition of prodrugs in mouse plasma in vitro (HPLC of released propofol or other substituted phenol); type: in vitro ADME; conditions: 37° C.
Protocol: The prodrug to be tested was prepared into a saline solution of 10 mg/mL. 10 μL of drug-containing solution was added to 990 μL of mouse plasma, vortexed for 30 s, and then incubated at 37° C. At 30 s, 1 min, 5 min, 10 min, 30 min, 60 min and 120 min, 50 μL of drug-containing plasma was collected, to which was immediately added 150 μL of acetonitrile to terminate the enzymatic reaction, and then centrifuged at 20000 rpm and 4° C. for 10 min. 50 μL of supernatant was taken out and injected into HPLC, to determine the concentration of propofol by internal standard method. The decomposition rate of the prodrug was calculated from the concentrations of propofol or other substituted phenols. Chromatographic conditions: Agilent Zorbax XdB C18 column (150 mm)×4.6 mm, 5 μm); column temperature 30° C.; the mobile phase, water:acetonitrile (40:60, v/v); fluorescence wavelength: excitation wavelength (Ex) at 276 nm, emission wavelength (EM) at 310 nm; flow rate: 1.2 mL/min; retention time: internal standard (thymol) 3.9 min, propofol 7.4 min. Linear range of propofol or other substituted phenols: 50-35000 ng/mL. Instruments: Waters 2695 high performance liquid chromatograph, Waters 2475 fluorescence detector.

[3] = system: Kunming mice; experiment: Determination of therapeutic index (ED50 and LD50, up-and-down method); type: in vivo, mouse; conditions: half male and half female
Protocol: Determination of therapeutic index (TI) of prodrug molecules: by referring the method in literature (Dixon, W. Staircase bioassay: the up-and-down method. Neurosci. Biobehav. Rev. 1991, 15, 47-50), the half-effective dose (ED50) and half-lethal dose (LD50) of the molecule to be tested were determined in Kunming mice (weighing 25-30 g, half male and half female). The therapeutic index for each molecule was calculated according to the equation: TI=LD50/ED50.

[4] = Table 4 (other substituted phenols and prodrugs), dose 2×ED50, tail vein injection, male Kunming mice
[5] = Table 3, dose 2×ED50, tail vein injection, male Kunming mice

## CC(C)c1cccc([C@H](C)C2CC2)c1OC(=O)COC(=O)CN1CCOCC1 [Compound 19]
[1]; [4]
  T1: the onset time after injection: Immediate
  T2: the duration of disappearance of righting reflex: 5.5 to 9 min
  T3: the time required for righting reflex to recover to autonomous activity: 1 to 2 min

## CC(C)c1cccc([C@H](C)C2CC2)c1O [(R)-2-cyclopropylethyl-6-isopropylphenol, reference compound]
[1]; [4]
  T1: the onset time after injection: Immediate
  T2: the duration of disappearance of righting reflex: 5 to 8 min
  T3: the time required for righting reflex to recover to autonomous activity: 1 to 2 min

## CC(C)c1cccc([C@@H](C)C2CC2)c1OC(=O)COC(=O)CN1CCCC1.Cl [Compound 55]
[1]; [4]
  T1: the onset time after injection: Immediate
  T2: the duration of disappearance of righting reflex: 5 to 9 min
  T3: the time required for righting reflex to recover to autonomous activity: 1 to 2 min

## CC(C)c1cccc(C(C)C)c1OC(=O)COC(=O)CN [Compound 1]
[2]; 30 s
  Decomposition rates of prodrugs: 97%
[2]; 1 min
  Decomposition rates of prodrugs: 100%
[2]; 5 min
  Decomposition rates of prodrugs: 100%
[2]; 10 min
  Decomposition rates of prodrugs: 100%
[2]; 30 min
  Decomposition rates of prodrugs: 100%
[2]; 60 min
  Decomposition rates of prodrugs: 100%
[2]; 120 min
  Decomposition rates of prodrugs: 100%
[1]; mouse, in vivo
  T1: the onset time after injection: Immediate
  T2: the duration of disappearance of righting reflex: 6 to 12 min
  T3: the time required for righting reflex to recover to autonomous activity: 1 to 2 min

## CC(C)c1cccc(C(C)C)c1OC(=O)COC(=O)CN1CCCCC1 [Compound 29]
[3]
  TI (therapeutic index): 4.1
[2]; 30 s
  Decomposition rates of prodrugs: 88%
[2]; 1 min
  Decomposition rates of prodrugs: 100%
[2]; 5 min
  Decomposition rates of prodrugs: 100%
[2]; 10 min
  Decomposition rates of prodrugs: 100%
[2]; 30 min
  Decomposition rates of prodrugs: 100%
[2]; 60 min
  Decomposition rates of prodrugs: 100%
[2]; 120 min
  Decomposition rates of prodrugs: 100%
[1]; [5]
  T3: the time required for righting reflex to recover to autonomous activity: 1 to 2 min
[1]; mouse, in vivo
  T1: the onset time after injection: Immediate
  T2: the duration of disappearance of righting reflex: 5 to 14 min

## CNCC(=O)OCC(=O)Oc1c(C(C)C)cccc1C(C)C [Compound 2]
[2]; 30 s
  Decomposition rates of prodrugs: 87%
[2]; 1 min
  Decomposition rates of prodrugs: 98%
[2]; 5 min
  Decomposition rates of prodrugs: 100%
[2]; 10 min
  Decomposition rates of prodrugs: 100%
[2]; 30 min
  Decomposition rates of prodrugs: 100%
[2]; 60 min
  Decomposition rates of prodrugs: 100%
[2]; 120 min
  Decomposition rates of prodrugs: 100%
[1]; mouse, in vivo
  T1: the onset time after injection: Immediate
  T2: the duration of disappearance of righting reflex: 7 to 15 min
  T3: the time required for righting reflex to recover to autonomous activity: 1 to 2 min

## CC(C)C[C@@H](N)C(=O)OCC(=O)Oc1c(C(C)C)cccc1C(C)C.Cl [Compound 48]
[3]
  TI (therapeutic index): 4.1
[2]; 30 s
  Decomposition rates of prodrugs: 92%
[2]; 1 min
  Decomposition rates of prodrugs: 100%
[2]; 5 min
  Decomposition rates of prodrugs: 100%
[2]; 10 min
  Decomposition rates of prodrugs: 100%
[2]; 30 min
  Decomposition rates of prodrugs: 100%
[2]; 60 min
  Decomposition rates of prodrugs: 100%
[2]; 120 min
  Decomposition rates of prodrugs: 100%
[1]; [5]
  T1: the onset time after injection: Immediate
  T2: the duration of disappearance of righting reflex: 6 to 14 min
  T3: the time required for righting reflex to recover to autonomous activity: 1 to 2 min

## CC(C)c1cccc(C(C)C)c1OCOP(=O)(O)O [Fospropofol, fospropofol, reference compound]
[3]
  TI (therapeutic index): 2.9
[2]; 10 min
  Decomposition rates of prodrugs: not decomposed significantly
[2]; 30 min
  Decomposition rates of prodrugs: 3%
[2]; 60 min
  Decomposition rates of prodrugs: 16%
[2]; 120 min
  Decomposition rates of prodrugs: 38%
[2]; 120 min, listed as fopropofol
  Decomposition rates of prodrugs: 38%
[1]; [5]
  T1: the onset time after injection: 1.5 to 2 min
  T2: the duration of disappearance of righting reflex: 28 to 45 min
  T3: the time required for righting reflex to recover to autonomous activity: 5 to 8 min

## CC(C)c1cccc([C@H](C)C2CC2)c1OC(=O)COC(=O)CN1CCOCC1.Cl [Compound 17]
[2]; 30 s
  Decomposition rates of prodrugs: 55%
[2]; 1 min
  Decomposition rates of prodrugs: 63%
[2]; 5 min
  Decomposition rates of prodrugs: 78%
[2]; 10 min
  Decomposition rates of prodrugs: 85%
[2]; 30 min
  Decomposition rates of prodrugs: 100%
[2]; 60 min
  Decomposition rates of prodrugs: 100%
[2]; 120 min
  Decomposition rates of prodrugs: 100%
[1]; [4]
  T1: the onset time after injection: Immediate
  T2: the duration of disappearance of righting reflex: 5.5 to 8 min
  T3: the time required for righting reflex to recover to autonomous activity: 1 to 2 min

## CC(C)c1cccc(C(C)C)c1OC(=O)COC(=O)CN1CCN(C)CC1 [Compound 7]
[3]
  TI (therapeutic index): 3.9
[2]; 30 s
  Decomposition rates of prodrugs: 91%
[2]; 1 min
  Decomposition rates of prodrugs: 100%
[2]; 5 min
  Decomposition rates of prodrugs: 100%
[2]; 10 min
  Decomposition rates of prodrugs: 100%
[2]; 30 min
  Decomposition rates of prodrugs: 100%
[2]; 60 min
  Decomposition rates of prodrugs: 100%
[2]; 120 min
  Decomposition rates of prodrugs: 100%
[1]; [5]
  T3: the time required for righting reflex to recover to autonomous activity: 1 to 2 min
[1]; mouse, in vivo
  T1: the onset time after injection: Immediate
  T2: the duration of disappearance of righting reflex: 6 to 13 min

## CC(C)c1cccc(C(C)C)c1OC(=O)COC(=O)CN1CCOCC1 [Compound 23]
[3]
  TI (therapeutic index): 4.4
[2]; 30 s
  Decomposition rates of prodrugs: 89%
[2]; 1 min
  Decomposition rates of prodrugs: 100%
[2]; 5 min
  Decomposition rates of prodrugs: 100%
[2]; 10 min
  Decomposition rates of prodrugs: 100%
[2]; 30 min
  Decomposition rates of prodrugs: 100%
[2]; 60 min
  Decomposition rates of prodrugs: 100%
[2]; 120 min
  Decomposition rates of prodrugs: 100%
[1]; [5]
  T1: the onset time after injection: Immediate
  T2: the duration of disappearance of righting reflex: 5 to 13 min
  T3: the time required for righting reflex to recover to autonomous activity: 1 to 2 min

## CC(C)c1cccc([C@H](C)C2CC2)c1OC(=O)COC(=O)CN1CCCCC1.Cl [Compound 53]
[1]; [4]
  T1: the onset time after injection: Immediate
  T2: the duration of disappearance of righting reflex: 5 to 8.5 min
  T3: the time required for righting reflex to recover to autonomous activity: 1 to 2 min

## CC(C)c1cccc(C(C)C)c1OC(=O)COC(=O)[C@@H](C)N(C)C.Cl [Compound 41]
[3]
  TI (therapeutic index): 3.8
[2]; 30 s
  Decomposition rates of prodrugs: 89%
[2]; 1 min
  Decomposition rates of prodrugs: 100%
[2]; 5 min
  Decomposition rates of prodrugs: 100%
[2]; 10 min
  Decomposition rates of prodrugs: 100%
[2]; 30 min
  Decomposition rates of prodrugs: 100%
[2]; 60 min
  Decomposition rates of prodrugs: 100%
[2]; 120 min
  Decomposition rates of prodrugs: 100%
[1]; [5]
  T1: the onset time after injection: Immediate
  T2: the duration of disappearance of righting reflex: 5 to 13 min
  T3: the time required for righting reflex to recover to autonomous activity: 1 to 2 min

## CC(C)c1cccc(C(C)C)c1OC(=O)COC(=O)CN(C)C [Compound 3]
[2]; 30 s
  Decomposition rates of prodrugs: 51%
[2]; 1 min
  Decomposition rates of prodrugs: 67%
[2]; 5 min
  Decomposition rates of prodrugs: 80%
[2]; 10 min
  Decomposition rates of prodrugs: 90%
[2]; 30 min
  Decomposition rates of prodrugs: 97%
[2]; 60 min
  Decomposition rates of prodrugs: 100%
[2]; 120 min
  Decomposition rates of prodrugs: 100%
[1]; mouse, in vivo
  T1: the onset time after injection: Immediate
  T2: the duration of disappearance of righting reflex: 5 to 10 min
  T3: the time required for righting reflex to recover to autonomous activity: 1 to 2 min

## CC(C)c1cccc(C(C)C)c1OC(=O)COC(=O)[C@H](C)N [Compound 4]
[2]; 30 s
  Decomposition rates of prodrugs: 94%
[2]; 1 min
  Decomposition rates of prodrugs: 100%
[2]; 5 min
  Decomposition rates of prodrugs: 100%
[2]; 10 min
  Decomposition rates of prodrugs: 100%
[2]; 30 min
  Decomposition rates of prodrugs: 100%
[2]; 60 min
  Decomposition rates of prodrugs: 100%
[2]; 120 min
  Decomposition rates of prodrugs: 100%
[1]; [5]
  T1: the onset time after injection: Immediate
  T2: the duration of disappearance of righting reflex: 5 to 13 min
  T3: the time required for righting reflex to recover to autonomous activity: 1 to 2 min

## CC(C)c1cccc(C(C)C)c1O [Propofol, reference compound]
[3]
  TI (therapeutic index): 4.4
[1]; mouse, in vivo
  T1: the onset time after injection: Immediate
  T2: the duration of disappearance of righting reflex: 5 to 11.5 min
  T3: the time required for righting reflex to recover to autonomous activity: 1 to 2 min
